Source: PubChem BioAssay AID258 (DTP/NCI, 2004)
Where “and” joins values, the source holds several entries; their conditions need not be identical. Equal values may be shown once. Toxic doses and inconclusive results are not listed.

System: CD2F1 mice, L1210 leukemia sc, survival T/C
Assay: NCI In Vivo Anticancer Drug Screen. Data for tumor model L1210 Leukemia (subcutaneous) in CD2F1 (CDF1) mice
Conditions: endpoint: median survival time, schedule: Q01DX009 (ip), vehicle: water, higher = longer survival
Procedure, shortened: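 Antitumor activity is scored in tumor-bearing mice by comparing survival or tumor size of treated animals against vehicle-treated controls, reported as T/C.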

## CCN(CC)CCNc1ccc(CO)c2sc3ccccc3c(=O)c12
dose: 10.0 mg/kg/injection
  T/C: 103 % of control and 110 % of control and 116 % of control
dose: 20.0 mg/kg/injection
  T/C: 113 % of control and 115 % of control and 121 % of control
dose: 40.0 mg/kg/injection
  T/C: 150 % of control
dose: 80.0 mg/kg/injection
  T/C: 100 % of control
dose: 160.0 mg/kg/injection
  T/C: 103 % of control and 86 % of control and 94 % of control
